Results as given in patent US9669015B2, “Piperidine-2, 6-dione derivatives and their use as tumor necrosis factor inhibitors” (Tianjin Hemay Bio-Tech Co., Ltd., priority 2005, dated 2017).

Test system: TNFα released by PBMCs
Test: Inhibition of TNFα released by PBMCs after LPS stimulation in vitro (ELISA)
Type: cell-based, human
Settings: Homo sapiens, PBMC; concentration giving 50% TNFα inhibition, LPS-stimulated PBMCs, nonlinear regression
Source text: Pharmacological Research: Effects of Monocyte (PBMC) Stimulation by LPS on TNFα
Cytokine TNFα released by PBMCs in peripheral blood after lip polysaccharide (LPS) stimulation in vitro was studied. The followings are research methods of cytokine TNFα released by PBMCs, which are inhibited by compounds of the invention.
PBMCs were obtained from blood of at least three volunteers after heparin treatment, by the method of gradient extraction. PBMCs were collected and washed with 1640 culture medium three times (10% calf serum, 2 mM L-glutamine, […] mercaptoethanol, 50 μg/ml streptomycin, 50 U/ml penicillin). The above PBMCs were placed onto a 24-well cell culture plate. The concentration was adjusted to 1×10^6 cells/ml with 1640 culture medium. Test compounds were dissolved in dimethylsulfoxide at an appropriate concentration. The resultant solution was added to the above cell culture medium and the culture plate was placed in a CO2 incubator (5% CO2, 90% humidity) for 1 hour. Then, LPS (Sigma) was added to adjust the concentration to 0.1 μg/ml (except for contrast). After 20 hrs of incubation, the content of TNFα in supernatant of the above PBMC culture medium was determined by ELISA kit (America Genzyme Co) using standard method. The measured value of the control (no active compound), and the measured value of the tested compounds was used to calculate the TNFα inhibition rate. The concentration of compounds giving a 50% TNFα inhibition (IC50 value) was calculated by nonlinear regression analysis. Each concentration was determined twice and an average value was obtained.

Compound	EC50
Nc1cccc2c1C(=O)N(C1CCC(=O)N(CCO)C1=O)C2=O (stereo not drawn) [Example 26, 4-amino-2-(1-(2-hydroxyethyl)-2,6-dioxopiperidin-3-yl)isoindoline-1,3-dione]	250 nM
COCCN1C(=O)CCC(N2C(=O)c3cccc(N)c3C2=O)C1=O (stereo not drawn) [Example 27, 4-amino-2-(1-(2-methoxyethyl)-2,6-dioxopiperidin-3-yl)isoindoline-1,3-dione]	300 nM

Same assay, conditions: Homo sapiens, PBMC; read-out: Inhibition Degree (%)

Compound	inhibition at 3 µM	inhibition at 100 µM
O=C1CCC(N2C(=O)c3ccccc3C2=O)C(=O)N1CCO (stereo not drawn) [Example 1, 2-(1-(2-Hydroxyethyl)-2,6-dioxopiperidin-3-yl)isoindoline-1,3-dione]	70%	
O=C1CCC(N2C(=O)c3ccccc3C2=O)C(=O)N1CCCCO (stereo not drawn) [Example 22, 2-(1-(4-hydroxybutyl)-2,6-dioxopiperidin-3-yl)isoindoline-1,3-dione]	18%	
O=C1CCC(N2C(=O)c3cccc([N+](=O)[O-])c3C2=O)C(=O)N1CCO (stereo not drawn) [Example 24, 2-(1-(2-hydroxyethyl)-2,6-dioxopiperidin-3-yl)-4-nitroisoindoline-1,3-dione]	28%	
Nc1cccc2c1C(=O)N(C1CCC(=O)N(CCO)C1=O)C2=O (stereo not drawn) [Example 26, 4-amino-2-(1-(2-hydroxyethyl)-2,6-dioxopiperidin-3-yl)isoindoline-1,3-dione]	95%	
COCCN1C(=O)CCC(N2C(=O)c3cccc(N)c3C2=O)C1=O (stereo not drawn) [Example 27, 4-amino-2-(1-(2-methoxyethyl)-2,6-dioxopiperidin-3-yl)isoindoline-1,3-dione]	92%	
COCCN1C(=O)CCC(N2C(=O)c3cccc(NC(C)=O)c3C2=O)C1=O (stereo not drawn) [Example 28, N-(2-(1-(2-methoxyethyl)-2,6-dioxopiperidin-3-yl)-1,3-dioxoisoindolin-7-yl)acetamide]	78%	
COCCN1C(=O)CCC(N2C(=O)c3cccc(N(C)C)c3C2=O)C1=O (stereo not drawn) [Example 29, 4-(dimethylamino)-2-(1-(2-methoxyethyl)-2,6-dioxopiperidin-3-yl)isoindoline-1,3-dione]	64%	
O=C1CCC(N2C(=O)c3ccccc3C2=O)C(=O)N1 (stereo not drawn) [Thalidomide, reference compound]		22%

Same assay, conditions: TNFα inhibition rate, LPS 0.1 μg/ml-stimulated PBMCs, compound concentration 3.0 μM

Compound	Inhibition Degree (%)
4,5,6,7-tetrafluoro-2-(1-(2-methoxyethyl)-2,6-dioxopiperidin-3-yl)-4-nitroisoindoline-1,3-dione [Example 31]	62%
4-fluoro-2-(1-(2-methoxyethyl)-2,6-dioxopiperidin-3-yl)-4-nitroisoindoline-1,3-dione [Example 30]	58%
CCN(CC)CC(=O)OCCN1C(=O)CCC(N2C(=O)c3ccccc3C2=O)C1=O (stereo not drawn) [Example 9, 2-(1-(2-hydroxyethyl)-2,6-dioxopiperidin-3-yl)isoindolin-1,3-dione 2-(diethylamino)acetate]	20%

Test system: not listed separately
Test: Solubility in water
Type: physicochemical
Settings: not given

Compound	Solubility in water
2-(1-(2-hydroxyethyl)-2,6-dioxopiperidin-3-yl)isoindolin-1,3-dione 2-(1-piperidyl)acetate hydrochloride [Example 14]	more than 100 mg/mL
2-(1-(2-hydroxyethyl)-2,6-dioxopiperidin-3-yl)isoindolin-1,3-dione 2-(diethylamino)acetate hydrochloride [Example 10]	higher than 100 mg/mL
